In data set [1] the test system is female Wistar rats. Briefly: Forced swim test in rats. It is filed as in vivo, rat. As for the experimental part: (§1) Naïve female Wistar rats (weighing 180–200 g) were used in the study. The animals were housed in groups of three to four in standard Makrolon cages (37 cm × 21 cm × 15 cm) under strictly controlled laboratory conditions (ambient temperature 21–24 °C, relative humidity 45–65%) with a 12/12 h light–dark regime (light on at 6:00 a.m. and off at 6:00 p.m.). Animals had unrestricted access to tap water and food (typical pellets). Prior the experiment the animals were randomly appointed to the group. The behavioral studies were accomplished between 8:00 a.m. and 5:00 p.m. with the researcher blind to the study. The experiments were performed according to protocols approved by the Local Ethical Committee in Krakow (Approval Number 147/2018), Poland. Housing and experimental procedures were conducted under the European Union Directive of September 22, 2010 (2010/63/EU) and Polish legislation regarding animal studies. All efforts were made to minimize animal suffering and the number of animals used in the study.
(§2) Vortioxetine (Sigma, Germany) and the tested compounds (16 and 6) were dissolved in 10% cyclodextrin and administered ip 30 min before the test or during 14 consecutive days, with the last injection 60 min before the test. 10% cyclodextrin was administrated to control group.
(§3) A modified forced swim test was carried out according to Detke et al.[50],[51] First, the animals were individually placed inside Plexiglas cylinders, which were 40 cm high and 18 cm in diameter, filled with water at a temperature of 23–25 °C for 15 min. Afterward, the rats were transferred to a Plexiglas box and kept under a 60 W bulb for 30 min to dry. The day after, exactly 24 h later, the rats were once again placed in the cylinder, and their duration of immobility, swimming, and climbing was observed and recorded during a 5 min. The swimming behavior involved energetic movements such as horizontal swimming around the cylinder, while climbing activity referred to upward movements of the forepaws along the swim chamber’s side. Immobility was recorded when the rat only made necessary movements to keep its head above the water. For each test, a fresh water was provided. Open field test in rats: The test was conducted as previously reported by our research group.[52] The test was performed in a darkened room employing the Motor Monitor System (Campden Instruments, Ltd., U.K.). The system was equipped with two SmartFrame Open Field stations, each measuring 40 cm × 40 cm × 38 cm and consisting of 16 × 16 beams. These stations were placed inside sound-attenuating chambers and connected to a PC software using […]. The animals, belonging to either the vehicle-injected or drug-injected group, were individually positioned at the center of the station. The Motor Monitor System, which was automated, recorded the animal’s ambulation in both the X and Y axes, as well as the number of rearing and peeping episodes. Additionally, the total distance traveled by each animal during the 5 min test period was also recorded. Statistical analysis: Results are presented as the mean ± SEM values. They were estimated using one-way analysis of variance (ANOVA), followed by Newman–Keuls post hoc or unpaired two-tailed Student t test. Statistical significance was considered when p < 0.05 for differences between groups.

Data set [2] relates to female Wistar rats. Briefly: Open field test in rats (locomotor activity). The class given is in vivo, rat. Details: total distance traveled: unit not given here. As for the experimental part:
as §1, §2, §3

A short description of data set [3]: Stability under radioligand binding assay conditions (incubation with brain tissue). The class given is in vitro ADME. The settings on record: after 1 h of incubation with brain tissue.
Data set [4] deals with 5-HT6 receptor (Homo sapiens, UniProt P50406). Briefly: Radioligand binding assay for 5-HT6 receptor ([3H]-LSD displacement). Also noted: expressed in transfected cells; host or cells: HEK-293 (cryopreserved membranes). As to conditions: competitive replacement of [3H]-LSD; ±S.E.M.; read-out: 5-HT6R Ki. As for the experimental part: To determine the affinity for 5-HT6, the cryopreserved membranes from HEK-293 cells stably transfected with the human recombinant 5-HT6 receptor were used.[40] Preparation of the tested compounds included preparation of stock solutions in DMSO (1 mM) and subsequent serial dilutions (10^–10–10^–5 M) of tested compounds in the appropriate buffer (50 mM Tris buffer, pH 7.4, 10 mM MgCl2, 0.5 mM ethylenediaminetetraacetic acid). The serial dilutions were acquired directly on a 96-well microplate. The reaction mix included 50 μL of appropriate concentration of tested molecule, 50 μL of [^3H]LSD 2.5/2.0 nM, and 150 μL of diluted membranes. The microplate containing the reaction mix was protected with a sealing tape and incubated for 60 min at 37 °C. Quenching of the reaction mixtire included: rapid filtration through UniFilter 96 GF/B filter microplate and rapid washes using 200 μL 50 mM assay buffer and vacuum manifold and 96-well pipettor. The collected microplates were dried overnight at 37 °C. The UniFilter bottoms were sealed, and then 30 μL of Betaplate Scint liquid scintillator (PerkinElmer) was added to each well. […] The obtained data were fit to a one-site curve-fitting equation using Prism 5 software (GraphPad Software), and the Ki values were determined using the Cheng–Prusoff equation. Radioligand binding was performed in duplicates.
Chain of 5-HT6 receptor (P50406 whole entry): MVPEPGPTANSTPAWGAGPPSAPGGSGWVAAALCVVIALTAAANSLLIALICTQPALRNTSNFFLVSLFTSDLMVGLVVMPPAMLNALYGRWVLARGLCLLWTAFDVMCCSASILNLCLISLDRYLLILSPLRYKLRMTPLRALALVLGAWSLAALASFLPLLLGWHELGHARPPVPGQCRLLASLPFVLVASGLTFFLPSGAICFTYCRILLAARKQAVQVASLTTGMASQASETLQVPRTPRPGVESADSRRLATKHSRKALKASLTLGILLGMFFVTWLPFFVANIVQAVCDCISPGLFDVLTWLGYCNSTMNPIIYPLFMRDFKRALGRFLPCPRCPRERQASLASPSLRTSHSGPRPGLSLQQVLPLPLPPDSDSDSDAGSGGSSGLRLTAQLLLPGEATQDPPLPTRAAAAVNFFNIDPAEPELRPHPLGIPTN

A short description of data set [5]: Parallel artificial membrane permeability assay (PAMPA). The class given is in vitro ADME. The settings on record: tested at 10^–5 M, PAMPA Plate System Gentest. As for the experimental part: To estimate the passive transport through cell membranes, we used specialized PAMPA Plate System Gentest acquired from Corning (Tewksbury, MA, USA). The assay was performed as described in the manufacturer’s protocol. The quantitative measurements of tested molecules in apical and basolateral wells were conducted using LC/MS (Waters ACQUITY TQD system with the TQ detector, Milford, USA) and a specific internal standard. The Pe permeability coefficient was calculated rendering the formulas described previously[47],[47] and compared to the reference compound sulpiride.

The mark [6] stands for this setting: acute, 3 mg/kg ip 30 min before test.
Where [7] appears, read: acute treatment, dose 3, ip 30 min prior.
The mark [8] stands for this setting: chronic treatment, dose 3, ip 14 days.

Here are results for 1 molecule from article PMC10119930, “Dual Molecules Targeting 5-HT6 and GABA-A Receptors as a New Approach to Combat Depression Associated with Neuroinflammation” (ACS Chemical Neuroscience, 2023).

On to `Cc1c(OCc2ccccc2)cccc1N1CCN(CCOC(=O)CCCN)CC1.Cl.Cl` [Compound 16, 1-(2-((4-Ammoniobutanoyl)oxy)ethyl)-4-(3-(benzyloxy)-2-methylphenyl)piperazin-1-ium Dichloride], for which, in data set [1] (setting [6]), the duration of swimming result is on record as “without affecting the duration of swimming”, the “increase of climbing behaviors vs control group” value is 336.5% and the “reduction of immobility time vs control group” value is on record as 31.9%. For the same molecule, the “decrease of immobility time vs vehicle-treated group” value in data set [1] (subchronic, 3 mg/kg ip for 14 days, test 60 min after last injection) was 22.9%. In data set [2] (setting [7]), the X ambulation was 221.3, the Y ambulation is 213.7, the rearing came to 34.5 and the total distance traveled stood at 506.3. For the same molecule, the “influence on spontaneous locomotor activity” value in data set [2] (acute, 3 mg/kg) is on record as “did not observe any influence”. Also, in data set [2] (setting [8]), the X ambulation turned out to be 260.4, the Y ambulation turned out to be 255.3, the rearing is 52.2 and the total distance traveled was found to be 2575. Besides, the “changes in spontaneous locomotor activity” value in data set [2] (subchronic, 3 mg/kg) was “did not result in any significant changes”. Further, in data set [3], the “% of the compound remaining” value amounted to 98.21%. Further, the Ki in data set [4] stood at 0.016 ± 0.0004 µM. In data set [5], this molecule showed a Papp of 62.4 nm/s.
